In ChEMBL document CHEMBL4765443, “Covalent and noncovalent constraints yield a figure eight-like conformation of a peptide inhibiting the menin-MLL interaction” (Eur J Med Chem, 2020):
Positions of bridges follow the written chain, without caps; N, C: chain ends. Non-standard residues stand in square brackets, D forms with d. Residues, ends and D or L forms follow the SMILES beside them. Phe(3-F) = N[C@@H](Cc1cccc(F)c1)C(=O)O; AllylGly = C=CC[C@H](N)C(=O)O; Orn = NCCC[C@H](N)C(=O)O; Ac4c = NC1(C(=O)O)CCC1

Assays:
[1] = target: T1, Menin/Histone-lysine N-methyltransferase MLL (Homo sapiens, UniProt O00255); assay: Inhibition of Menin-MLL protein-protein interaction (unknown origin) preincubated for 1 hr in presence of FLSN-MLL4-43 peptide followed by compound addition and measured after 1 hr by fluorescence polarization assay
T1 sequence (O00255 whole entry): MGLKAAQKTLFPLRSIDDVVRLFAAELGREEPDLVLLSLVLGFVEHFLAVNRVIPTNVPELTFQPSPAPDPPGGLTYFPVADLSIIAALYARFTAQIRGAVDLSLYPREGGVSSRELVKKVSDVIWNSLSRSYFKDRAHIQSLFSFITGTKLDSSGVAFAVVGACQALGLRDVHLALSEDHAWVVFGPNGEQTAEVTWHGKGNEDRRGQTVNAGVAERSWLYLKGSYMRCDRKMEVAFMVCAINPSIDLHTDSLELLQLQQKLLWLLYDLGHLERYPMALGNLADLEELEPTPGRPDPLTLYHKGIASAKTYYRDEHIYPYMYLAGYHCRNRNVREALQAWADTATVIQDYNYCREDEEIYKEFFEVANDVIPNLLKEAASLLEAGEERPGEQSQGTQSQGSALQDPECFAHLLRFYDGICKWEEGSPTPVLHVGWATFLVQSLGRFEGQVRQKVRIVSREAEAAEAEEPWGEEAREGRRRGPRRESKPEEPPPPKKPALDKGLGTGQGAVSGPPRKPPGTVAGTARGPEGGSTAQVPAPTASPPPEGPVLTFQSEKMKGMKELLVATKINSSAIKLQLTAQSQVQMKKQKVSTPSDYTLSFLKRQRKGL
T1 sequence (Q03164 1-2718 partner limits assumed): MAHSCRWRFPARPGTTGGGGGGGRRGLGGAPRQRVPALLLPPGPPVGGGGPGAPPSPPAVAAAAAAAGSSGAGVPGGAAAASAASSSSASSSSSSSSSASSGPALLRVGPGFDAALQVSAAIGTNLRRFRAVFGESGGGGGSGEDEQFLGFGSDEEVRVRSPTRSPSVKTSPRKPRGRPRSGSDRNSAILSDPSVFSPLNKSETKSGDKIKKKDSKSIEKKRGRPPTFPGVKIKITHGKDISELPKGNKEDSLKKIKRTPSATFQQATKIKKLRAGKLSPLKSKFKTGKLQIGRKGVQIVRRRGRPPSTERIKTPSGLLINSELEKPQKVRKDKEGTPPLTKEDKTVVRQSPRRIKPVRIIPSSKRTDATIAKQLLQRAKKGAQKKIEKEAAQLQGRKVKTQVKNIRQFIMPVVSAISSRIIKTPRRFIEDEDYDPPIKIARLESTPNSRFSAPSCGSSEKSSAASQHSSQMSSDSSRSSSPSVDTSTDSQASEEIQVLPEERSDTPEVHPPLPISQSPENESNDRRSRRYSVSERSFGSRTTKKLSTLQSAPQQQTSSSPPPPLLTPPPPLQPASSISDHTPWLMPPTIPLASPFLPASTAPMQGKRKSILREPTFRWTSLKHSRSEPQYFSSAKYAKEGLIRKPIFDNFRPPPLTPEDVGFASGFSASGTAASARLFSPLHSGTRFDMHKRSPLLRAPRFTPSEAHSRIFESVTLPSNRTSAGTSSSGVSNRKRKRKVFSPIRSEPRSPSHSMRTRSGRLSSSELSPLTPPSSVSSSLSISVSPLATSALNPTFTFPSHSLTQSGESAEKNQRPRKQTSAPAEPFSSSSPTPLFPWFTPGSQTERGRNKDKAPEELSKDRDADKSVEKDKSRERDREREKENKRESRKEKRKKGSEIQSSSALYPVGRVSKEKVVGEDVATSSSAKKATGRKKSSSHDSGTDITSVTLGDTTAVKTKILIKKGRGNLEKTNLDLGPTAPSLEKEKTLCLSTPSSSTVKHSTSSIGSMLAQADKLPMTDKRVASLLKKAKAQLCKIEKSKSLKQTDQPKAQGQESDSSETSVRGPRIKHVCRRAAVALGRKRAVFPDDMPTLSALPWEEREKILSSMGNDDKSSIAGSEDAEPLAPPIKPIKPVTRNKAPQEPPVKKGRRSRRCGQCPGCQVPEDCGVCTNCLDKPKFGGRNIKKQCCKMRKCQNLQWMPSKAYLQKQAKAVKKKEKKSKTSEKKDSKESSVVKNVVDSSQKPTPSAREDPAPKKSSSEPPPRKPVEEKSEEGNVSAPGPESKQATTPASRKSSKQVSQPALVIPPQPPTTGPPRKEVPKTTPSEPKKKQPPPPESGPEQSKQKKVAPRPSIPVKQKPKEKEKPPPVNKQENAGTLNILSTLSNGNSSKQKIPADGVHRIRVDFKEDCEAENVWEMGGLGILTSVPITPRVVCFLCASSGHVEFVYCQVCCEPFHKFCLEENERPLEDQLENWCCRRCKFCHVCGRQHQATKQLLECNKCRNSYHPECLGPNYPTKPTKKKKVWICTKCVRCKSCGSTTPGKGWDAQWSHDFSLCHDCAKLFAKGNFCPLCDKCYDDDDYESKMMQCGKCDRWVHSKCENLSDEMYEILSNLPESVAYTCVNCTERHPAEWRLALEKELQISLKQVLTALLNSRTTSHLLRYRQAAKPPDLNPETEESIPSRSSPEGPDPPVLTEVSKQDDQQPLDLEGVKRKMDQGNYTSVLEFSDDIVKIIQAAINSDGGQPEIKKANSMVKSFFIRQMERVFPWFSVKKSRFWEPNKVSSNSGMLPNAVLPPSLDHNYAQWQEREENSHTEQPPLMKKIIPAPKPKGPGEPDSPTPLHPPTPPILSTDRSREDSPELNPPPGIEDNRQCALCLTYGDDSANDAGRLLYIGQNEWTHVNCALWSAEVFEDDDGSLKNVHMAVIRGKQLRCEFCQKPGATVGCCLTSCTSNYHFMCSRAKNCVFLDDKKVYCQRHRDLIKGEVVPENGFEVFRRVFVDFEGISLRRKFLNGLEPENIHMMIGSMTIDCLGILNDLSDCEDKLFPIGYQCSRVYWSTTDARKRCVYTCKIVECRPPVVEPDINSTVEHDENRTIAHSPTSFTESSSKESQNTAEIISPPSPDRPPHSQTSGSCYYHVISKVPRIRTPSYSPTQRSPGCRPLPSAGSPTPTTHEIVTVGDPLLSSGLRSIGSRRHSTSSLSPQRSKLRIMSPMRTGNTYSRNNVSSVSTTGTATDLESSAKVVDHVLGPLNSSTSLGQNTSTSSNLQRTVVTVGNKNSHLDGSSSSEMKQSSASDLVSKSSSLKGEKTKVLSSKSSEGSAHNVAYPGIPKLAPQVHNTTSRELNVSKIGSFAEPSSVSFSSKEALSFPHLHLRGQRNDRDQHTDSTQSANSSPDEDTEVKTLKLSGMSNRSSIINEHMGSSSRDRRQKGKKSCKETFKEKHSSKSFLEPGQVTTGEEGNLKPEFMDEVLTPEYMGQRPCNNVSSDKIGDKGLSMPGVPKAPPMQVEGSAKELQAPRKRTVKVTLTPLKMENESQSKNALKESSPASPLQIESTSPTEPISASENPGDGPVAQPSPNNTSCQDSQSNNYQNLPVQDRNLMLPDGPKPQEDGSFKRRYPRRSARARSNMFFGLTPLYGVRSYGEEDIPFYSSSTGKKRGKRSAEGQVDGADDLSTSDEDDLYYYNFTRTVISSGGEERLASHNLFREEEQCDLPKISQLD
T1 sequence (Q03164 2719-3969 partner limits assumed): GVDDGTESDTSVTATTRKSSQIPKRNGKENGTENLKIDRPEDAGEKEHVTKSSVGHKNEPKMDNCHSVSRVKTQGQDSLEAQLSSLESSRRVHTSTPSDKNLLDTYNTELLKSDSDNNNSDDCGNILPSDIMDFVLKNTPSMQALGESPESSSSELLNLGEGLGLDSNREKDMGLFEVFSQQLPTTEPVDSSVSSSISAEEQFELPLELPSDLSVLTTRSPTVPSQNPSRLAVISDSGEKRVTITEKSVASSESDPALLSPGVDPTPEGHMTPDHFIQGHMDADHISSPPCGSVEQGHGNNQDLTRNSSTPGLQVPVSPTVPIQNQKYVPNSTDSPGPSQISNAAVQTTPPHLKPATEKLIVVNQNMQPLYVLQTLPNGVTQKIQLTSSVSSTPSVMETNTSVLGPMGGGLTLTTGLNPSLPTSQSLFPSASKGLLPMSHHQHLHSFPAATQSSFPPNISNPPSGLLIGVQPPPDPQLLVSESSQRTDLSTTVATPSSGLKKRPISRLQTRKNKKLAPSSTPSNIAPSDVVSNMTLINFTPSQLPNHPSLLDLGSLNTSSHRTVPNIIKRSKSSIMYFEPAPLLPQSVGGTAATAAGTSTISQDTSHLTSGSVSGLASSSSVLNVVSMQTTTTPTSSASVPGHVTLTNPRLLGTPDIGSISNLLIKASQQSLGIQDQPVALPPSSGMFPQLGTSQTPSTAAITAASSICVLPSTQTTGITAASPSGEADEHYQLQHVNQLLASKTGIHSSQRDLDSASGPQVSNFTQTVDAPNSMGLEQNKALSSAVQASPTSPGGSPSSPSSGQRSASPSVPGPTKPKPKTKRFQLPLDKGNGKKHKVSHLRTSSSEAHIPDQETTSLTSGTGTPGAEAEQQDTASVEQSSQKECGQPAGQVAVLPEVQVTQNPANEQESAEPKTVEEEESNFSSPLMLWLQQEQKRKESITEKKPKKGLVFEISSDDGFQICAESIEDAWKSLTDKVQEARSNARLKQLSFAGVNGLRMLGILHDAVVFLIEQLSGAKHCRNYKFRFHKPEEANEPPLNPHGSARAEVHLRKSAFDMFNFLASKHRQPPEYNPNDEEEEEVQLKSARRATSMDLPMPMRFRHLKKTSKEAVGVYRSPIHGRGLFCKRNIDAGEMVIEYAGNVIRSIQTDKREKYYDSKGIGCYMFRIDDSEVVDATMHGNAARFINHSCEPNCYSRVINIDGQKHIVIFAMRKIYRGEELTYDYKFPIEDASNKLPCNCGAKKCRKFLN

[2] = target: T1, Menin/Histone-lysine N-methyltransferase MLL; assay: Inhibition of Menin-MLL protein-protein interaction (unknown origin) preincubated for 1 hr in presence of FLSN-MBM1 peptide followed by compound addition and measured after 1 hr by fluorescence polarization assay

Q: How did the IC50 [1] turn out when `CC(=O)N[C@@H](C)C(=O)N[C@@H](CCCNC(=N)N)C(=O)N[C@@H](Cc1c[nH]c2ccccc12)C(=O)N[C@H]1CCCC[C@@H](C(=O)N2CCC[C@H]2C(=O)N[C@@H](CCCN)C(=O)N[C@@H](CCCNC(=N)N)C(=O)N[C@@H](CCCNC(=N)N)C(=O)N[C@@H](CCCNC(=N)N)C(N)=O)NC(=O)C2(CCC2)NC(=O)[C@@H]2CCCN2C(=O)[C@H](Cc2cccc(F)c2)NC1=O` was run?
A: Its IC50 is 4.6 nM.

Q: Which IC50 [2] does the source give for `CC(=O)N[C@@H](CO)C(=O)N[C@@H](C)C(=O)N[C@@H](CCCNC(=N)N)C(=O)N[C@@H](Cc1c[nH]c2ccccc12)C(=O)N[C@@H](CCCNC(=N)N)C(=O)N[C@@H](Cc1ccccc1)C(=O)N1CCC[C@H]1C(=O)N[C@@H](C)C(=O)N[C@@H](CCCNC(=N)N)C(=O)N1CCC[C@H]1C(=O)NCC(=O)N[C@H](C(N)=O)[C@@H](C)O` here?
A: Its IC50 is 84 nM.

Q: What about the IC50 [1] of the same compound?
A: Its IC50 is 3590 nM.

Q: With `CC(=O)N[C@@H](C)C(=O)N[C@@H](CCCNC(=N)N)C(=O)N[C@@H](Cc1c[nH]c2ccccc12)C(=O)N[C@H]1C/C=C\C[C@@H](C(=O)N2CCC[C@H]2C(=O)N[C@@H](CCCN)C(N)=O)NC(=O)C2(CCC2)NC(=O)[C@@H]2CCCN2C(=O)[C@H](Cc2cccc(F)c2)NC1=O` (Ac-ARW[AllylGly][Phe(3-F)]P[Ac4c][AllylGly]P[Orn]-NH2; staple (Z) 4-8) as the compound, how does the IC50 [1] read?
A: The IC50 was 1230 nM.

Q: For `CC(=O)N[C@@H](C)C(=O)N[C@@H](CCCNC(=N)N)C(=O)N[C@@H](Cc1c[nH]c2ccccc12)C(=O)N[C@H]1C/C=C\C[C@@H](C(=O)N2CCC[C@H]2C(=O)N[C@@H](CCCN)C(=O)N[C@@H](CCCNC(=N)N)C(N)=O)NC(=O)C2(CCC2)NC(=O)[C@@H]2CCCN2C(=O)[C@H](Cc2cccc(F)c2)NC1=O` (Ac-ARW[AllylGly][Phe(3-F)]P[Ac4c][AllylGly]P[Orn]R-NH2; staple (Z) 4-8), which IC50 [1] is on record?
A: Its IC50 is 58 nM.

Q: How did the IC50 [1] turn out when `CC(=O)N[C@@H](C)C(=O)N[C@@H](CCCNC(=N)N)C(=O)N[C@@H](Cc1c[nH]c2ccccc12)C(=O)N[C@H]1C/C=C\C[C@@H](C(=O)N2CCC[C@H]2C(=O)N[C@@H](CCCN)C(=O)N[C@@H](CCCNC(=N)N)C(=O)N[C@@H](CCCNC(=N)N)C(=O)N[C@@H](CCCNC(=N)N)C(N)=O)NC(=O)C2(CCC2)NC(=O)[C@@H]2CCCN2C(=O)[C@H](Cc2cccc(F)c2)NC1=O` (Ac-ARW[AllylGly][Phe(3-F)]P[Ac4c][AllylGly]P[Orn]RRR-NH2; staple (Z) 4-8) was run?
A: The IC50 was 2.35 nM.

Q: With `CC(=O)N[C@@H](CO)C(=O)N[C@@H](C)C(=O)N[C@@H](CCCNC(=N)N)C(=O)N[C@@H](Cc1c[nH]c2ccccc12)C(=O)N[C@H]1C/C=C\C[C@@H](C(=O)N2CCC[C@H]2C(=O)N[C@@H](CCCNC(=N)N)C(N)=O)NC(=O)C2(CCC2)NC(=O)[C@@H]2CCCN2C(=O)[C@H](Cc2cccc(F)c2)NC1=O` (Ac-SARW[AllylGly][Phe(3-F)]P[Ac4c][AllylGly]PR-NH2; staple (Z) 5-9) as the compound, how does the IC50 [2] read?
A: The IC50 was 64 nM.

Q: And the IC50 [1]?
A: Its IC50 is 657 nM.

Q: How did the IC50 [1] turn out when `CC(=O)N[C@@H](CO)C(=O)N[C@@H](C)C(=O)N[C@@H](CCCNC(=N)N)C(=O)N[C@@H](Cc1c[nH]c2ccccc12)C(=O)N[C@H]1C/C=C\C[C@@H](C(=O)N2CCC[C@H]2C(=O)N[C@@H](CCCN)C(N)=O)NC(=O)C2(CCC2)NC(=O)[C@@H]2CCCN2C(=O)[C@H](Cc2cccc(F)c2)NC1=O` (Ac-SARW[AllylGly][Phe(3-F)]P[Ac4c][AllylGly]P[Orn]-NH2; staple (Z) 5-9) was run?
A: The IC50 was 777 nM.

Q: For Ac-RWRFPARPGTGRR-NH2, which IC50 [1] is on record?
A: The IC50 was 49 nM.
